Like-named read-outs stand apart in the source and are kept apart here.
Tests used:
[1] = at 50° C.; U.S. patent application Ser. No. 12/612,374; cited from earlier work
[2] = Solubility in reverse osmosis (RO) water at room temperature; format: physicochemical; conditions: g per 100 g solvent
Protocol: Hereinafter, unless specified otherwise the solubility of material is determined in reverse osmosis (RO) water at room temperature. Where the solubility is expressed as “%” it to be understood as number of grams of material soluble in 100 grams of solvent.

[3] = cited from earlier work

## C=C1C[C@@]23CC[C@H]4[C@@](C)(CCC[C@@]4(C)C(=O)O[C@@H]4O[C@H](CO)[C@@H](O)[C@H](O)[C@H]4O[C@@H]4O[C@H](CO)[C@@H](O)[C@H](O)[C@H]4O)[C@@H]2CC[C@]1(O[C@@H]1O[C@H](CO)[C@@H](O)[C@H](O[C@@H]2O[C@H](CO)[C@@H](O)[C@H](O)[C@H]2O)[C@H]1O[C@@H]1O[C@H](CO)[C@@H](O)[C@H](O)[C@H]1O)C3 [anhydrous form of Reb D, Rebaudioside D, reference compound]
[1]
  solubility: about 0.15%

## Rebaudioside B [Reb B]
[2]
  water solubility: 0.01%

## C=C1C[C@@]23CC[C@H]4[C@@](C)(CCC[C@@]4(C)C(=O)O[C@@H]4O[C@H](CO)[C@@H](O)[C@H](O)[C@H]4O)[C@@H]2CC[C@]1(O[C@@H]1O[C@H](CO)[C@@H](O)[C@H](O[C@@H]2O[C@H](CO)[C@@H](O)[C@H](O)[C@H]2O)[C@H]1O[C@@H]1O[C@H](CO)[C@@H](O)[C@H](O)[C@H]1O)C3 [Reb A, Rebaudioside A]
[2]
  water solubility: > 5%
[2]; listed as rebaudioside A
  water solubility: 5.5%

## C=C1C[C@@]23CC[C@H]4[C@@](C)(CCC[C@@]4(C)C(=O)O[C@@H]4O[C@H](CO)[C@@H](O)[C@H](O)[C@H]4O)[C@@H]2CC[C@]1(O[C@@H]1O[C@H](CO)[C@@H](O)[C@H](O[C@@H]2O[C@H](CO)[C@@H](O)[C@H](O)[C@H]2O)[C@H]1O[C@@H]1O[C@H](CO)[C@@H](O)[C@H](O)[C@H]1O)C3 [Form 2, Rebaudioside A]
[3]; in 5 minutes
  Rate of dissolution in H2O at 25° C.: (<30% in 5

## C=C1C[C@@]23CC[C@H]4[C@@](C)(CCC[C@@]4(C)C(=O)O[C@@H]4O[C@H](CO)[C@@H](O)[C@H](O)[C@H]4O)[C@@H]2CC[C@]1(O[C@@H]1O[C@H](CO)[C@@H](O)[C@H](O[C@@H]2O[C@H](CO)[C@@H](O)[C@H](O)[C@H]2O)[C@H]1O[C@@H]1O[C@H](CO)[C@@H](O)[C@H](O)[C@H]1O)C3 [Form 4, Rebaudioside A]
[3]; in 5 minutes
  Rate of dissolution in H2O at 25° C.: High (>35%

## C=C1C[C@@]23CC[C@H]4[C@@](C)(CCC[C@@]4(C)C(=O)O[C@@H]4O[C@H](CO)[C@@H](O)[C@H](O)[C@H]4O)[C@@H]2CC[C@]1(O[C@@H]1O[C@H](CO)[C@@H](O)[C@H](O[C@@H]2O[C@H](CO)[C@@H](O)[C@H](O)[C@H]2O)[C@H]1O[C@@H]1O[C@H](CO)[C@@H](O)[C@H](O)[C@H]1O)C3 [Form 3, Rebaudioside A]
[3]; in 5 minutes
  Rate of dissolution in H2O at 25° C.: High (>30%

## C=C1C[C@@]23CC[C@H]4[C@@](C)(CCC[C@@]4(C)C(=O)O[C@@H]4O[C@H](CO)[C@@H](O)[C@H](O)[C@H]4O)[C@@H]2CC[C@]1(O[C@@H]1O[C@H](CO)[C@@H](O)[C@H](O[C@@H]2O[C@H](CO)[C@@H](O)[C@H](O)[C@H]2O)[C@H]1O[C@@H]1O[C@H](CO)[C@@H](O)[C@H](O)[C@H]1O)C3 [Form 1, Rebaudioside A]
[3]; Prakash et al. 2008
  solubility among Reb A polymorph forms: lowest solubility
[3]; in 60 minutes
  Rate of dissolution in H2O at 25° C.: (<0.2% in

Reference: patent publication US20140171520A1, “HIGHLY SOLUBLE STEVIA SWEETENER” (priority 2011, published 2014)
